Patent US4132802A, “Benzoic acid derivative and benzenesulfonic acid mucolytic process” (Mead Johnson & Company, priority 1978, dated 1979)
“And” between values parts separate entries of the source, which are not always exact repeats. Equal entries are not always repeated. Where two headings read alike, the source gives them in different places.

Tests used:
[1] = Mucolytic activity: percent reduction in viscosity of sputum, cone-plate viscometer (method of Lieberman); parameters: species or system human; conditions: for Relative molar potency compared to N-acetyl-L-cysteine: on a molar basis, N-acetyl-L-cysteine = 1; for Mucolytic activity compared to N-acetyl-L-cysteine (in words): compared with N-acetyl-L-cysteine
Experimental: Mucolytic activity was determined using the method of J. Lieberman, Am. J. Resp. […] This is a viscometric method which employs a cone-plate viscometer (Brookfield Engineering Laboratories, Inc., Stoughton, Mass.). According to this method, a 2 ml. aliquot of a batch of purulent human sputum (obtained from bronchitic patients) is transferred to the center of the viscometer plate and the temperature is allowed to equilibrate. The plate is then rotated at gradually increasing speeds up to 100 r.p.m. during a 2-minute period. This reduces the amount of sputum on the test plate to 1 ml. and reduces the viscosity of the specimen to a reproducible value which is necessary because of the thixotropic properties of sputum. […] The test is repeated with N-acetyl-L-cysteine employing another aliquot of sputum to establish a control for comparison purposes. Relative molar potencies compared to N-acetyl-L-cysteine (NAC) can be determined by varying concentration of the test agent until approximately equivalent mucolytic activity is obtained.

[2] = Toxicity (LD50, TD50) in the mouse; conditions: in vivo
Source text: The substances of Formula I are relatively non-toxic substances substantially free of other pharmacologic action.

Structure (SMILES): O=C(CS)Nc1ccc(C(=O)O)cc1 [Compound 1, 4-(2-MERCAPTOACETAMIDO)BENZOIC ACID]
- Percent reduction in viscosity ([1]; 0.005 Molar, 1 min, 5000 µM): 32%
- Percent reduction in viscosity ([1]; 0.005 Molar, 3 min, 5000 µM): 50%
- Percent reduction in viscosity ([1]; 0.005 Molar, 6 min, 5000 µM): 57%
- Percent reduction in viscosity ([1]; 0.005 Molar, 9 min, 5000 µM): 55%
- Percent reduction in viscosity ([1]; 0.005 Molar, 12 min, 5000 µM): 55%
- Percent reduction in viscosity ([1]; 0.005 Molar, 15 min, 5000 µM): 55%
- Percent reduction in viscosity ([1]; 0.01 Molar, 1 min, 10000 µM): 45%
- Percent reduction in viscosity ([1]; 0.01 Molar, 3 min, 10000 µM): 63%
- Percent reduction in viscosity ([1]; 0.01 Molar, 6 min, 10000 µM): 69%
- Percent reduction in viscosity ([1]; 0.01 Molar, 9 min, 10000 µM): 76%
- Percent reduction in viscosity ([1]; 0.01 Molar, 12 min, 10000 µM): 82%
- Percent reduction in viscosity ([1]; 0.01 Molar, 15 min, 10000 µM): 84%
- Relative molar potency compared to N-acetyl-L-cysteine [1]: approximately 12 times
- LD50 ([2]; ip, intraperitoneally, read-out: LD50): 1110 mg/kg
- TD50 ([2]; named in the same clause as the oral LD50, read-out: approximate TD50): ~250 mg/kg
- LD50 ([2]; oral, read-out: approximate LD50): ~2000 mg/kg

Structure (SMILES): O=C(CS)Nc1cccc(C(=O)O)c1 [Compound 2, 3-(2-MERCAPTOACETAMIDO)BENZOIC ACID]
- Percent reduction in viscosity ([1]; 0.03 Molar, 1 min, 30000 µM): 44%
- Percent reduction in viscosity ([1]; 0.03 Molar, 3 min, 30000 µM): 67%
- Percent reduction in viscosity ([1]; 0.03 Molar, 6 min, 30000 µM): 81%
- Percent reduction in viscosity ([1]; 0.03 Molar, 9 min, 30000 µM): 89%
- Percent reduction in viscosity ([1]; 0.03 Molar, 12 min, 30000 µM): 91%
- Percent reduction in viscosity ([1]; 0.03 Molar, 15 min, 30000 µM): 93%
- Mucolytic activity compared to N-acetyl-L-cysteine (in words) [1]: substantially more active than N-acetyl-L-cysteine

Structure (SMILES): O=C(CS)Nc1ccc(S(=O)(=O)O)cc1 [Compound 3, N-(2-MERCAPTOACETYL)SULFANILIC ACID]
- Percent reduction in viscosity ([1]; 0.005 Molar, 1 min, 5000 µM): 34%
- Percent reduction in viscosity ([1]; 0.005 Molar, 3 min, 5000 µM): 47%
- Percent reduction in viscosity ([1]; 0.005 Molar, 6 min, 5000 µM): 50%
- Percent reduction in viscosity ([1]; 0.005 Molar, 9 min, 5000 µM): 50%
- Percent reduction in viscosity ([1]; 0.005 Molar, 12 min, 5000 µM): 47%
- Percent reduction in viscosity ([1]; 0.005 Molar, 15 min, 5000 µM): 44%
- Percent reduction in viscosity ([1]; 0.01 Molar, 1 min, 10000 µM): 46%
- Percent reduction in viscosity ([1]; 0.01 Molar, 3 min, 10000 µM): 64%
- Percent reduction in viscosity ([1]; 0.01 Molar, 6 min, 10000 µM): 66%
- Percent reduction in viscosity ([1]; 0.01 Molar, 9 min, 10000 µM): 68%
- Percent reduction in viscosity ([1]; 0.01 Molar, 12 min, 10000 µM): 77%
- Percent reduction in viscosity ([1]; 0.01 Molar, 15 min, 10000 µM): 82%

Structure (SMILES): O=C(CS)Nc1ccc(C(=O)NCCO)cc1 [Compound 4, N-(2-HYDROXYETHYL)-4-(2-MERCAPTOACETAMIDO)BENZAMIDE]
- Percent reduction in viscosity ([1]; 0.001 Molar, 1 min): 25%
- Percent reduction in viscosity ([1]; 0.001 Molar, 3 min, 1000 µM): 32%
- Percent reduction in viscosity ([1]; 0.001 Molar, 6 min, 1000 µM): 36%
- Percent reduction in viscosity ([1]; 0.001 Molar, 9 min, 1000 µM): 36%
- Percent reduction in viscosity ([1]; 0.001 Molar, 12 min, 1000 µM): 36%
- Percent reduction in viscosity ([1]; 0.001 Molar, 15 min, 1000 µM): 34%
- Percent reduction in viscosity ([1]; 0.002 Molar, 1 min, 2000 µM): 26%
- Percent reduction in viscosity ([1]; 0.002 Molar, 3 min, 2000 µM): 37%
- Percent reduction in viscosity ([1]; 0.002 Molar, 6 min, 2000 µM): 42%
- Percent reduction in viscosity ([1]; 0.002 Molar, 9 min, 2000 µM): 44%
- Percent reduction in viscosity ([1]; 0.002 Molar, 12 min, 2000 µM): 44%
- Percent reduction in viscosity ([1]; 0.002 Molar, 15 min, 2000 µM): 42%
- Percent reduction in viscosity ([1]; 0.005 Molar, 1 min, 5000 µM): 30%
- Percent reduction in viscosity ([1]; 0.005 Molar, 3 min, 5000 µM): 58%
- Percent reduction in viscosity ([1]; 0.005 Molar, 6 min, 5000 µM): 67%
- Percent reduction in viscosity ([1]; 0.005 Molar, 9 min, 5000 µM): 75%
- Percent reduction in viscosity ([1]; 0.005 Molar, 12 min, 5000 µM): 82%
- Percent reduction in viscosity ([1]; 0.005 Molar, 15 min, 5000 µM): 82%
- Relative molar potency compared to N-acetyl-L-cysteine [1]: approximately 15 times

Structure (SMILES): CC(=O)SCC(=O)Nc1ccc(C(=O)O)cc1 [Compound 5, 4-[2-(ACETYLTHIO)ACETAMIDO]BENZOIC ACID]
- Percent reduction in viscosity ([1]; 0.03 Molar, 1 min, 30000 µM): 34%
- Percent reduction in viscosity ([1]; 0.03 Molar, 3 min, 30000 µM): 42%
- Percent reduction in viscosity ([1]; 0.03 Molar, 6 min, 30000 µM): 54%
- Percent reduction in viscosity ([1]; 0.03 Molar, 9 min, 30000 µM): 54%
- Percent reduction in viscosity ([1]; 0.03 Molar, 12 min, 30000 µM): 52%
- Percent reduction in viscosity ([1]; 0.03 Molar, 15 min, 30000 µM): 48%
- Mucolytic activity compared to N-acetyl-L-cysteine (in words) [1]: significantly more active than N-acetyl-L-cysteine

Structure (SMILES): CC(=O)N[C@@H](CS)C(=O)O [NAC, N-acetyl-L-cysteine, reference compound]
- Percent reduction in viscosity ([1]; 0.03 Molar, 1 min, 30000 µM): 25% and 29% and 33%
- Percent reduction in viscosity ([1]; 0.03 Molar, 3 min, 30000 µM): 32% and 33% and 34%
- Percent reduction in viscosity ([1]; 0.03 Molar, 6 min, 30000 µM): 40% and 36%
- Percent reduction in viscosity ([1]; 0.03 Molar, 9 min, 30000 µM): 42% and 40% and 34%
- Percent reduction in viscosity ([1]; 0.03 Molar, 12 min, 30000 µM): 42% and 43% and 34%
- Percent reduction in viscosity ([1]; 0.03 Molar, 15 min, 30000 µM): 40% and 34%
- Percent reduction in viscosity ([1]; 0.06 Molar, 1 min, 60000 µM): 36%
- Percent reduction in viscosity ([1]; 0.06 Molar, 3 min, 60000 µM): 45%
- Percent reduction in viscosity ([1]; 0.06 Molar, 6 min, 60000 µM): 52%
- Percent reduction in viscosity ([1]; 0.06 Molar, 9 min, 60000 µM): 50%
- Percent reduction in viscosity ([1]; 0.06 Molar, 12 min, 60000 µM): 52%
- Percent reduction in viscosity ([1]; 0.06 Molar, 15 min, 60000 µM): 60%
